Data as given in patent US20080226714A1, “SUSTAINED-RELEASE TABLET FORMULATIONS OF PIPERAZINE-PIPERIDINE ANTAGONISTS AND AGONISTS OF THE 5-HT1A RECEPTOR HAVING ENHANCED INTESTINAL DISSOLUTION” (WYETH, priority 2007, published 2008).
Converted amounts (≈) assume the structure as drawn. Where two headings read alike, the source gives them in different places.

What was measured:
physchem = assay type: physicochemical
Text: (§1) Pharmaceutical compounds that interact with the 5-HT1A receptor are useful to treat a wide variety of central nervous system disorders, such as cognition disorders, anxiety disorders, and depression. Certain piperazine-piperidine compounds have shown utility as 5-HT1A receptor antagonists, agonists and partial antagonist/agonists. See, for example, U.S. Patent Publication No. 2007/0027160, filed Jun. 9, 2006, entitled “piperazine-Piperidine Antagonists And Agonists Of The 5-HT1A Receptor”. […] During development of 5-fluoro-8-{4-[4-(6-methoxyquinolin-8-yl)piperazin-1-yl]piperidin-1-yl}quinoline, it was discovered that the compound has a pH-dependent solubility. […] Therefore, the rate of systemic input of 5-fluoro-8-{4-[4-(6-methoxyquinolin-8-yl)piperazin-1-yl]piperidin-1-yl}quinoline will be dependent on the dissolution or solubilization of the compound. […] A controlled-release formulation to reduce the dose frequency of 5-fluoro-8-{4-[4-(6-methoxyquinolin-8-yl)piperazin-1-yl]piperidin-1-yl}quinoline would be beneficial for improving compliance and convenience. However, this type of formulation presents the challenge of maintaining the dissolution of the compound in the lower gastrointestinal tract where solubility is very low.

[1] = Permeability characteristics in animal studies; assay type: in vivo
Text: as §1

[2] = Preclinical half-life after IV bolus; assay type: in vivo; settings: Sprague-Dawley rats, 0.3 mg/kg IV bolus
Text: See, for example, U.S. Patent Publication No. 2007/0027160, filed Jun. 9, 2006, entitled “piperazine-Piperidine Antagonists And Agonists Of The 5-HT1A Receptor”.

solubility (physchem; free base, water, read-out: water solubility)	solubility (physchem; pH 2.4, aqueous buffer, pH about 2.4, read-out: solubility)	solubility (physchem; pH 6, aqueous buffer, pH levels greater than about 6, read-out: solubility)	solubility (physchem; pH 8.9, aqueous buffer, pH about 8.9, read-out: solubility)	permeability [1]	t1/2 [2]	solubility (physchem; trisuccinate salt, pH greater than about six)	solubility (physchem; water, trisuccinate salt, aqueous, read-out: aqueous solubility)	Structure (SMILES)
~0.04 µg/mL (≈ 0.0848 µM)	~2200 µg/mL (≈ 4670 µM)	< 1 µg/mL	~0.036 µg/mL (≈ 0.0763 µM)	high permeability	about one	–	–	COc1cc(N2CCN(C3CCN(c4ccc(F)c5cccnc45)CC3)CC2)c2ncccc2c1 [5-fluoro-8-{4-[4-(6-methoxyquinolin-8-yl)piperazin-1-yl]piperidin-1-yl}quinoline]
–	–	–	–	–	–	sub-microgram per milliliter level	~1000 µg/mL	COc1cc(N2CCN(C3CCN(c4ccc(F)c5cccnc45)CC3)CC2)c2ncccc2c1.O=C(O)CCC(=O)O.O=C(O)CCC(=O)O.O=C(O)CCC(=O)O [5-fluoro-8-{4-[4-(6-methoxyquinolin-8-yl)piperazin-1-yl]piperidin-1-yl}quinoline trisuccinate]
